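How tested: cells in 96-well plates exposed to compound for 48 hours at five concentrations. Here, GI50 denotes the concentration required for 50% inhibition of growth. TGI: concentration producing complete growth inhibition.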
How the values were obtained:
Assay in all cases: inhibition of tumour cell growth, NCI panel, 48 h
A498 renal = test system: A498 renal
K-562 leukemia = test system: K-562 leukemia
SK-MEL-2 melanoma = test system: SK-MEL-2 melanoma
SF-295 CNS = test system: SF-295 CNS
OVCAR-3 ovarian = test system: OVCAR-3 ovarian
NCI-H226 lung = test system: NCI-H226 lung
MOLT-4 leukemia = test system: MOLT-4 leukemia
UO-31 renal = test system: UO-31 renal
NCI-H522 lung = test system: NCI-H522 lung
COLO 205 colon = test system: COLO 205 colon
SK-MEL-28 melanoma = test system: SK-MEL-28 melanoma
U251 CNS = test system: U251 CNS
HOP-62 NSCLC = test system: HOP-62 NSCLC
HT29 colon = test system: HT29 colon
LOX IMVI melanoma = test system: LOX IMVI melanoma
ACHN renal = test system: ACHN renal
UACC-257 melanoma = test system: UACC-257 melanoma
HOP-92 NSCLC = test system: HOP-92 NSCLC
TK-10 renal = test system: TK-10 renal
IGROV1 ovarian = test system: IGROV1 ovarian
MCF7 breast = test system: MCF7 breast
HS 578T breast = test system: HS 578T breast
SK-MEL-5 melanoma = test system: SK-MEL-5 melanoma
EKVX NSCLC = test system: EKVX NSCLC
CAKI-1 renal = test system: CAKI-1 renal
MALME-3M melanoma = test system: MALME-3M melanoma
OVCAR-4 ovarian = test system: OVCAR-4 ovarian
OVCAR-8 ovarian = test system: OVCAR-8 ovarian
A549 NSCLC = test system: A549 NSCLC
SN12C renal = test system: SN12C renal
NCI/ADR-RES ovarian = test system: NCI/ADR-RES ovarian
MDA-MB-435 = test system: MDA-MB-435
M14 melanoma = test system: M14 melanoma
PC-3 prostate = test system: PC-3 prostate
NCI-H23 lung = test system: NCI-H23 lung
MDA-MB-231 breast = test system: MDA-MB-231 breast
SW-620 colon = test system: SW-620 colon
UACC-62 melanoma = test system: UACC-62 melanoma
SF-268 CNS = test system: SF-268 CNS
T-47D breast = test system: T-47D breast
RPMI-8226 leukemia = test system: RPMI-8226 leukemia
CCRF-CEM leukemia = test system: CCRF-CEM leukemia
SR leukemia = test system: SR leukemia
DU-145 prostate = test system: DU-145 prostate
HCT-116 colon = test system: HCT-116 colon
SNB-75 CNS = test system: SNB-75 CNS
HCT-15 colon = test system: HCT-15 colon
HL-60(TB) leukemia = test system: HL-60(TB) leukemia
NCI-H460 lung = test system: NCI-H460 lung
HCC-2998 colon = test system: HCC-2998 colon
SK-OV-3 ovarian = test system: SK-OV-3 ovarian
OVCAR-5 ovarian = test system: OVCAR-5 ovarian
SF-539 CNS = test system: SF-539 CNS

CCCCCCCCCC[N+](C)(C)C
GI50 (A498 renal): 1.78 µM | TGI (A498 renal): 7.81 µM | GI50 (K-562 leukemia): 1.82 µM | TGI (K-562 leukemia): 7.82 µM | GI50 (SK-MEL-2 melanoma): 2.41 µM | TGI (SK-MEL-2 melanoma): 6.61 µM | GI50 (SF-295 CNS): 1.97 µM | TGI (SF-295 CNS): 5.81 µM | GI50 (OVCAR-3 ovarian): 1.68 µM | TGI (OVCAR-3 ovarian): 5.4 µM | GI50 (NCI-H226 lung): 2.37 µM | TGI (NCI-H226 lung): 8.97 µM | GI50 (MOLT-4 leukemia): 1.59 µM | TGI (MOLT-4 leukemia): 3.43 µM | GI50 (UO-31 renal): 4.91 µM | TGI (UO-31 renal): 20 µM | GI50 (NCI-H522 lung): 1.7 µM | TGI (NCI-H522 lung): 5.11 µM | GI50 (COLO 205 colon): 1.28 µM | TGI (COLO 205 colon): 2.59 µM | GI50 (SK-MEL-28 melanoma): 3.07 µM | TGI (SK-MEL-28 melanoma): 12.2 µM | GI50 (U251 CNS): 1.04 µM | TGI (U251 CNS): 2.29 µM | GI50 (HOP-62 NSCLC): 1.18 µM | TGI (HOP-62 NSCLC): 3.07 µM | GI50 (HT29 colon): 0.505 µM | TGI (HT29 colon): 2.17 µM | GI50 (LOX IMVI melanoma): 1.41 µM | TGI (LOX IMVI melanoma): 2.95 µM | GI50 (ACHN renal): 2.39 µM | TGI (ACHN renal): 12.5 µM | GI50 (UACC-257 melanoma): 2.3 µM | TGI (UACC-257 melanoma): 7.07 µM | GI50 (HOP-92 NSCLC): 0.677 µM | TGI (HOP-92 NSCLC): 4.6 µM | GI50 (TK-10 renal): 1.42 µM | TGI (TK-10 renal): 3.27 µM | GI50 (IGROV1 ovarian): 1.66 µM | TGI (IGROV1 ovarian): 3.2 µM | GI50 (MCF7 breast): 2.45 µM | TGI (MCF7 breast): 12.7 µM | GI50 (HS 578T breast): 2.22 µM | TGI (HS 578T breast): 6.38 µM | GI50 (SK-MEL-5 melanoma): 1.73 µM | TGI (SK-MEL-5 melanoma): 3.26 µM | GI50 (EKVX NSCLC): 3.66 µM | TGI (EKVX NSCLC): 30.5 µM | GI50 (CAKI-1 renal): 2.52 µM | TGI (CAKI-1 renal): 15.3 µM | GI50 (MALME-3M melanoma): 2.25 µM | TGI (MALME-3M melanoma): 8.96 µM | GI50 (OVCAR-4 ovarian): 2.2 µM | TGI (OVCAR-4 ovarian): 14.5 µM | GI50 (OVCAR-8 ovarian): 1.83 µM | TGI (OVCAR-8 ovarian): 5.53 µM | GI50 (A549 NSCLC): 2.52 µM | TGI (A549 NSCLC): 8.43 µM | GI50 (SN12C renal): 2.95 µM | TGI (SN12C renal): 8.66 µM | GI50 (NCI/ADR-RES ovarian): 15.1 µM | TGI (NCI/ADR-RES ovarian): 49.6 µM | GI50 (MDA-MB-435): 1.75 µM | TGI (MDA-MB-435): 4.29 µM | GI50 (M14 melanoma): 1.74 µM | TGI (M14 melanoma): 5.83 µM | GI50 (PC-3 prostate): 0.978 µM | TGI (PC-3 prostate): 5.16 µM | GI50 (NCI-H23 lung): 2 µM | TGI (NCI-H23 lung): 6.34 µM | GI50 (MDA-MB-231 breast): 1.59 µM | TGI (MDA-MB-231 breast): 4.38 µM | GI50 (SW-620 colon): 2.13 µM | TGI (SW-620 colon): 10.1 µM | GI50 (UACC-62 melanoma): 1.69 µM | TGI (UACC-62 melanoma): 4.59 µM | GI50 (SF-268 CNS): 1.98 µM | TGI (SF-268 CNS): 5.77 µM | GI50 (T-47D breast): 1.91 µM | TGI (T-47D breast): 8.33 µM | GI50 (RPMI-8226 leukemia): 0.604 µM | TGI (RPMI-8226 leukemia): 2.9 µM | GI50 (CCRF-CEM leukemia): 0.739 µM | TGI (CCRF-CEM leukemia): 2.32 µM | GI50 (SR leukemia): 1.12 µM | TGI (SR leukemia): 3.43 µM | GI50 (DU-145 prostate): 1.94 µM | TGI (DU-145 prostate): 4.88 µM | GI50 (HCT-116 colon): 2.34 µM | TGI (HCT-116 colon): 10.5 µM | GI50 (SNB-75 CNS): 1.26 µM | TGI (SNB-75 CNS): 3.69 µM | GI50 (HCT-15 colon): 2.49 µM | TGI (HCT-15 colon): 17.1 µM | GI50 (HL-60(TB) leukemia): 0.874 µM | TGI (HL-60(TB) leukemia): 2.59 µM | GI50 (NCI-H460 lung): 1.73 µM | TGI (NCI-H460 lung): 3.84 µM | GI50 (HCC-2998 colon): 1.58 µM | TGI (HCC-2998 colon): 3.53 µM | GI50 (SK-OV-3 ovarian): 2.57 µM | TGI (SK-OV-3 ovarian): 13 µM | GI50 (OVCAR-5 ovarian): 1.05 µM | TGI (OVCAR-5 ovarian): 3.89 µM | GI50 (SF-539 CNS): 2.17 µM | TGI (SF-539 CNS): 5.9 µM

From PubChem BioAssay (NCI)
